Reference: patent US9220714B2, “Nitrofuran compounds for the treatment of cancer and angiogenesis” (WOMEN AND INFANTS HOSPITAL OF RHODE ISLAND, priority 2006, dated 2015)
Values after ≈ are worked out from the molar mass of the structure shown. Where two headings read alike, the source gives them in different places.

What was measured:
[1] = tested on: neuroblastoma; settings: for tumor marker VMA: initial VMA 22
Excerpt: Chagas disease is a parasitic disease caused by Trypanasoma cruzi endemic to South America.

[2] = tested on: normal epithelial cells; settings: normal epithelial cells in culture; cited from earlier work
[3] = tested on: rat aortic rings; settings: with growth factors, day 9
Excerpt: (A) Vehicle treated aorta without growth factor (B) Vehicle treated aorta with growth factor.
Matrigel bed mimics physiological extracellular matrix representing its natural composition and architecture. Due to these features, Matrigel enables several cell types, including endo-thelial cells, to maintain in culture their in vivo phenotype and 3-dimensional organization. Aortic arches were removed from euthanized rats and immediately transferred to a culture dish containing ice-cold serum-free media. The peri-aortic fibroadipose tissue was carefully removed with fine microdissection forceps and iridectomy scissors paying special attention not to damage the aortic wall. Aortic rings (1 mm thick) were sectioned and extensively rinsed in 5 consecutive washes of Medium 200. […] The explants were examined every second day with a Nikon Eclipse TS100 inverted microscope at an appropriate magnification and photographed at the end of 9th day. On the ninth day, the capillary sprouting were quantified by grading and recording the extent of sprouting directly reflecting angiogenesis using Nikon Eclipse TS100 fluorescent microscope (Japan) and Fuji digital camera.

[4] = tested on: SMS-KCNR cells; test: cells; settings: Homo sapiens
Protocol: (§1) Cell viability was assessed using the MTS assay as described in Materials and Methods and expressed as percent of vehicle treated control. The data represents the mean SSD of four replicates.
SMS-KCNR cells were pretreated with pancaspase inhibitor, Z-VAD-FMK. […] Cell viability was measured by MTS assay. The reversal of cytotoxicity by pancaspase inhibitor was determined by comparing the viability of riifurtimox treated cells in the presence or absence of the pancaspase inhibitor. The values are the Mean±SD of quadruplicates.
(§2) The human neuroblastoma cell lines IMR-32 (ATCC), SMS-KCN, SMS-KCNR (from John Maris, CHOP, Philadelphia, Pa.) were maintained in RPMI 1640 media supplemented with 10% fetal bovine serum, 100 units/ml penicillin and 100 μg/ml streptomycin at 37° C. in a humidified incubator. Cells were grown in 6 well plates or 100 mm dishes to 75% confluency and serum deprived (RPMI 1640 with 0.1% BSA) overnight before treatment.
(§3) Cell viability was measured using the CellTiter 96 AQ One Solution Cell Proliferation Assay kit (Promega, Madison Wis.)^4. […] Vehicle treated cells were used as control (0.001% DMSO). At the end of the incubation period, MTS reagent (3-(4,5-dimethylthiazol-2-yl)-5-(3-carboxymethoxyphenyl)-2-(4-sulfophenyl)-2H-tetrazolium)^12 was added to each well in fresh media to a final concentration of 0.5 mg/ml and incubated for 4 hours. Absorbance was measured at 490 nm using a microplate reader (Multiskan RC, Fisher Scientific Pittsburgh, Pa.). Cell viability is represented as the mean percentage+/−SD of absorbance before and after treatment.
Inactivation of caspases results in inhibition of caspase mediated apoptosis. […] The cell viability was measured by MTS assay.

[5] = tested on: SMS-KCNR cells; settings: 0-20 μg/ml, after 72 hours of treatment
[6] = tested on: neuroblastoma cell lines
[7] = tested on: SMS-KCNR cells; settings: 96 hours
Protocol: Vehicle treated cells were used as control.
Vehicle treated cells were used as control. […] The cells were washed with PBS, fixed with paraformaldehyde, permeabilized with Triton X-100 at room temperature, labeled with fluorescein-12-dUTP using terminal deoxynucleotidyl transferase and counterstained with propidium iodide (5 μg/ml). Negative controls (without terminal transferase) were included in each experiment. Apoptosis was detected by fluorescence microscopy (Nikon Eclipse TE2000-E fitted with a cooled CCD camera, Japan). Propidium iodide staining was used to detect both non-apoptotic and apoptotic cells and fluorescein staining was used to detect the apoptotic cells.

[8] = study of 67 children using nifurtimox for Chagas disease; cited from earlier work
[9] = tested on: HEC; test: cells; settings: Homo sapiens, 8 h, read-out: inhibition of tube formation
Protocol: Stimulation with growth factors leads to morphological differentiation of endothelial cells and formation of tube like structures on matrices. The endothelial tube formation assay was performed in Matrigel bed. Briefly, Matrigel bed was prepared by using pre-cooled pipettes, plates and tubes on ice. Growth factor-reduced Matrigel was thawed overnight at 4° C. and mixed to homogeneity, Culture plates (48-well) were coated with 0.1 ml of Matrigel and allowed to gelatinize at 37° C. for 30 minutes. […] Capillary networks were photographed using a phase-contrast microscope (Nikon Eclipse TS 100, fitted with Fuji digital camera, Japan), and the number of tubes was quantified by counting the branching points from four quadrants of each well.

[10] = tested on: SMS-KCNR cells; test: cells; settings: Homo sapiens, read-out: concentration giving 50% inhibition in DNA synthesis (BrdU incorporation)
Protocol: (§4) Cells were labeled with 10 μM BrdU for 6 hours. The cells were fixed and the color was developed using peroxidase conjugated anti-BrdU antibody and TMB (3,3′,5,5′-tetramethylbenzidine) chromogenic substrate. Absorbance was measured at 450 nm using a microplate reader (Multiskan RC, Fisher Scientific, Pittsburgh, Pa.). In this assay, the color intensity correlates directly to the amount of BrdU incorporation which in turn reflects proliferation.

[11] = tested on: ERK1/2; settings: SMS-KCNR, data not shown
[12] = tested on: Human Endothelial Cells (HEC); test: cells; settings: Endothelial cell, read-out: inhibition of DNA synthesis in HEC
Protocol: as §4
Human Endothelial Cells (HEC) (1×10^4 cells) were cultured in 96 well plates, serum deprived for 16 hours and treated with […], 1.25, 2.5, 5, 10 and 20 μg/ml in Medium 200 in the presence or absence of 50 ng/ml VEGF for 72 hours. BrdU (10 μM final concentration) was added to the cells and re-incubated for further 6 hours. The cells were fixed and the color was developed using anti-BrdU-POD antibody and TMB chromogenic substrate. The assay was performed according to the manufacturer's instructions. In this colorimetric cell proliferation assay, the color intensity correlates directly to the amount of BrdU incorporated into the DNA which in turn represents proliferation. The results are expressed as percentage BrdU incorporation.

[13] = tested on: SMS-KCNR cells; settings: 150 mg/kg/day in food pellets, 30 days, nude mice
[14] = tested on: caspase-3; settings: 1, 10 and 20 μg/ml, 24 hours
Protocol: as §2

[15] = tested on: Akt; settings: SMS-KCNR
Protocol: as §2

[16] = tested on: IMR-32 cells; test: cells; settings: Homo sapiens
Protocol: as §1, §2, §3

[17] = tested on: SMS-KCN cells; test: cells; settings: Homo sapiens
Protocol: as §1, §2, §3

[18] = tested on: sympathetic neurons; settings: not seen in parasympathetic neurons or non-neuronal cells
[19] = 120 h, read-out: cell viability
[20] = read-out: IC50, concentration required to reach 50% inhibition of growth

CC1CS(=O)(=O)CCN1/N=C/c1ccc([N+](=O)[O-])o1 (stereo not drawn) [Nifurtimox]
tumor response ([1]; Patient A, after four months, with cyclophosphamide and topotecan): significant and continuous tumor regression
tumor response ([1]; Patient A, after two weeks, Nifurtimox alone): tumor stabilization
tumor markers ([1]; Patient B, after two months, with ascorbic acid, cyclophosphamide and topotecan): normalization of tumor markers
tumor marker VMA ([1]; Patient C, Day 21, before ascorbic acid): 17
bone marrow tumor status ([1]; Patient C, Day 21, initially positive for tumor): negative
tumor marker VMA ([1]; Patient C, after 3 cycles of treatment): 13
tumor response ([1]; patient with Chagas disease, 15-20 mg/kg/day oral, with cyclophosphamide and topotecan): tumor subsequently regressed
tumor response after relapse ([1]; same patient restarted on nifurtimox, cyclophosphamide and topotecan): again demonstrated tumor regression
tumor response ([1]; three patients with relapsed neuroblastoma, 20 mg/kg/day, alone or in combination): tumor regression
cytotoxic effects on normal epithelial cells [2]: not observed
micro-vascular sprouting of aortic rings ([3]; 20 μg/ml): complete inhibition of micro-vascular sprouting
capillary network of aortic rings ([3]; 1 and 10 μg/ml): sparse and incomplete
cytotoxicity at 10 µg/mL ([4]; 96 h, read-out: decrease of cell viability compared to vehicle treated control): 50%
viability at 20 µg/mL [4, 19]: 37%
IC50 [4, 20]: 14.7 µg/mL (≈ 51.2 µM)
viability at 10 µg/mL ([4]; read-out: cell viability with Z-VAD-FMK pretreatment): 90%
apoptosis (TUNEL positive nuclei) [5]: dose dependent increase in apoptosis
cytotoxicity after pretreatment with AMPT (tyrosine hydroxylase inhibitor) [6]: reduction of cytotoxicity
morphological alterations ([7]; 1 μg/ml): decrease in axon length was apparent
morphological alterations ([7]; 10 μg/ml): the decrease in axon length was more prominent and was associated with rounding of cells
morphological alterations ([7]; 20 μg/ml): rounded up and floating
tolerability in children versus adults [8]: much better tolerated in children
inhibition at 20 µg/mL [9]: 50%
IC50 [10]: 18.1 µg/mL (≈ 63 µM)
phosphorylation of ERK1/2 [11]: not affected
inhibition at 5 µg/mL [12]: 30%
inhibition at 10 µg/mL [12]: 50%
inhibition at 20 µg/mL [12]: > 80%
decrease in tumor size versus untreated [13]: greater than three fold decrease
tumor size [13]: 0.3 grams
activation of caspase-3 (19 and 17 kDa bands) [14]: dose dependent and strong activation
serum stimulated Akt phosphorylation ([15]; 1.0 and 10 μg/ml, in the presence of serum): completely inhibited
BDNF stimulated Akt phosphorylation ([15]; 10 and 20 μg/ml, BDNF stimulation): significantly inhibited
total Akt protein levels ([15]; BDNF stimulation): not altered
viability at 20 µg/mL ([16]; IMR-32, 120 h, read-out: cell viability): 78%
IC50 ([16]; IMR-32, read-out: IC50, concentration required to reach 50% inhibition of growth): 52.9 µg/mL (≈ 184 µM)
viability at 20 µg/mL [17, 19]: 59%
IC50 [17, 20]: 25.4 µg/mL (≈ 88.4 µM)
sensitivity of sympathetic neurons to nifurtimox [18]: enhanced sensitivity
